Ki data for 35 compounds are collected here from patent EP1673354B1, “ARYLINDENOPYRIDINES AND ARYLINDENOPYRIMIDINES AND THEIR USE AS ADENOSINE A2A RECEPTOR ANTAGONISTS” (Ortho-McNeil Pharmaceutical, Inc., priority 2003, dated 2005).

The structures appear in SMILES notation.

Experiment [1] addresses T1, human A2a adenosine receptor (Homo sapiens, UniProt P29274).
T1 construct: purchased PerkinElmer RB-HA2a; host or cells: HEK293 cell plasma membrane
In words: Ligand binding assay for adenosine A2a receptor ([3H]CGS21680, HEK293 plasma membrane). Conditions: radioligand [3H]CGS21680, HEK293 membranes, room temperature 2 hours; read-out: Ki (nM) A2a binding. Here is the method:
Ligand Binding Assay for Adenosine A2a Receptor
Ligand binding assay of adenosine A2a receptor was performed using plasma membrane of HEK293 cells containing human A2a adenosine receptor (PerkinElmer, RB-HA2a) and radioligand [^3H]CGS21680 (PerkinElmer, NET1021). Assay was set up in 96-well polypropylene plate in total volume of 200 µl by sequentially adding 20 µL1:20 diluted membrane, 130 µLassay buffer (50 mM Tris·HCl, pH7.4 10 mM MgCl2, 1 mM EDTA) containing [^3H] […] Nonspecific binding was determined by […] NECA. Reaction was carried out at room temperature for 2 hours before filtering through 96-well GF/C filter plate pre-soaked in 50 mM Tris·HCl, pH7.4 containing 0.3% polyethylenimine. Plates were then washed 5 times with cold 50 mM Tris·HCl, pH7.4, dried and sealed at the bottom. Microscintillation fluid 30 µl was added to each well and the top sealed. Plates were counted on Packard Topcount for [^3H]. Data was analyzed in Microsoft Excel and GraphPad Prism programs.

For experiment [2], the target named is T2, human adenosine A2a receptors (Homo sapiens, UniProt P29274).
T2 construct: expressed in transfected cells; host or cells: CHO-K1 cells with cAMP-inducible beta-galactosidase reporter gene
T2 sequence (P29274 whole entry): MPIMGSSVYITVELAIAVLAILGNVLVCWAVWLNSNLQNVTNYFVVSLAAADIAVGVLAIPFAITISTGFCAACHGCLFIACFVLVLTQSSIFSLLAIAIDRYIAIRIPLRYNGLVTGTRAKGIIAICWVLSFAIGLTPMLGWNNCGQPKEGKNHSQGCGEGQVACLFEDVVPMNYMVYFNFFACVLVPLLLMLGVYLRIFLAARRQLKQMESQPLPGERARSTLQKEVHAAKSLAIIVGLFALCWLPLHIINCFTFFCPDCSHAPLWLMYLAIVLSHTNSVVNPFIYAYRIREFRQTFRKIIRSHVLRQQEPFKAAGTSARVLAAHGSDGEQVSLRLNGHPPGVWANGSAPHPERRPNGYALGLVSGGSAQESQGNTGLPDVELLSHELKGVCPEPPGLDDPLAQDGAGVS
Kind of experiment: Adenosine A2a receptor functional assay, antagonist mode (cAMP-inducible beta-galactosidase reporter, 50 nM NECA). As to conditions: CHO-K1 cells, read-out: Ki (nM) A2a antagonist function. Type of experiment: cell-based. Here is the method: Adenosine A2a Receptor Functional Assay
CHO-K1 cells overexpressing human adenosine A2a receptors and containing cAMP-inducible beta-galactosidase reporter gene were seeded at 40-50K/well into 96-well tissue culture plates and cultured for two days. On assay day, cells were washed once with 200 µL assay medium (F-12 nutrient mixture/0.1 % BSA). For agonist assay, adenosine A2a receptor agonist NECA was subsequently added and cell incubated at 37°C, 5% CO2 for 5 hrs before stopping reaction. In the case of antagonist assay, cells were incubated with antagonists for 5 minutes at R.T. followed by addition of 50 nM NECA. Cells were then incubated at 37°C, 5% CO2 for 5 hrs before stopping experiments by washing cells with PBS twice. 50 µL 1X lysis buffer (Promega, 5X stock solution, needs to be diluted to 1X before use) was added to each well and plates frozen at -20°C. For β-galactosidase enzyme colorimetric assay, plates were thawed out at room temperature and 50 µL 2X assay buffer (Promega) added to each well. Color was allowed to develop at 37°C for 1 h or until reasonable signal appeared. Reaction was then stopped with 150 µL 1 M sodium carbonate. […] Data was analyzed in Microsoft Excel and GraphPad Prism programs.

The target in a further experiment is T3, Adenosine A1 receptor (Homo sapiens, UniProt P30542).
T3 sequence (P30542 1-326): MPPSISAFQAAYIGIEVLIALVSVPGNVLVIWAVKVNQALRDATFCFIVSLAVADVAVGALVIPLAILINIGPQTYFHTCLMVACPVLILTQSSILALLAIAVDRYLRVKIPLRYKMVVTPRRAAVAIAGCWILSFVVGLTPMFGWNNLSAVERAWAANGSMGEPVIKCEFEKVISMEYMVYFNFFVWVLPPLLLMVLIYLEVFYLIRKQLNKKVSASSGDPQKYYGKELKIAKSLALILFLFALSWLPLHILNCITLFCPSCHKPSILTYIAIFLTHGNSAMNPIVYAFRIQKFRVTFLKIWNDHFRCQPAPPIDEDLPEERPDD
In words: A1 antagonist function (no method described). In kind it is cell-based.

T1 sequence (P29274 whole entry): as the sequence (P29274 whole entry) above

As for `Nc1nc(-c2ccco2)c2c(n1)-c1c(F)cccc1C2=O` [Compound 36], the results for the Ki (in experiment [1]; in experiment [2]; on Adenosine A1 receptor) were 4.37 nM, 0.052 nM and 2.52 nM, respectively.
In the case of `COc1cccc2c1C(=O)c1c(-c3ccco3)nc(N)nc1-2` [Compound 37], the Ki in experiment [1] stood at 2.86 nM; in experiment [2], 0.143 nM; at Adenosine A1 receptor, 3.07 nM.
As to `Nc1nc(-c2ccc(F)cc2)c2c(n1)-c1ccccc1C2=O` [Compound 38], the results for the Ki (in experiment [1]; in experiment [2]; at Adenosine A1 receptor) were 2.34 nM, 0.956 nM and 9.44 nM, respectively.
With `Nc1nc(-c2cccc(F)c2)c2c(n1)-c1ccccc1C2=O` [Compound 39], the values for the inhibitory constant (Ki) (in experiment [1]; in experiment [2]; at Adenosine A1 receptor) were 4.92 nM, 0.926 nM and 2.31 nM, respectively.
Taken in the same sequence, the figures for `CSc1nc(N)nc2c1C(=O)c1ccccc1-2` [Compound 41] were 88 nM, 575 nM and greater than 3000 nM.
The matching figures for `Nc1nc(Nc2ccccc2)c2c(n1)-c1ccccc1C2=O` [Compound 43]: 39.9 nM, 3.68 nM and 2.34 nM.
Taken in the same sequence, the figures for `Nc1nc(-c2ccoc2)c2c(n1)-c1ccccc1C2=O` [Compound 44] were 3.93 nM, 0.208 nM and 7.4 nM.
Turning to `Cc1ccc(-c2nc(N)nc3c2C(=O)c2ccccc2-3)o1` [Compound 45, 2-amino-4-(5-methyl-furan-2-yl)-indeno[1,2-d]pyrimidin-5-one], the Ki is 4.01 nM in experiment [1], 0.005 nM in experiment [2] and 0.016 nM at Adenosine A1 receptor.
The matching figures for `CN(C)CCN(C)Cc1cccc2c1C(=O)c1c(-c3ccccc3)nc(N)nc1-2` [Compound 49]: 51.1 nM, 40.1 nM and 119 nM.
Regarding `CN1CCN(Cc2cccc3c2C(=O)c2c(-c4ccccc4)nc(N)nc2-3)CC1` [Compound 50], the Ki in experiment [1] worked out at 80.1 nM; in experiment [2], 11.3 nM; at Adenosine A1 receptor, 94.2 nM.
For the compound `Nc1nc(-c2ccccc2)c2c(n1)-c1cccc(CN3CCOCC3)c1C2=O` [Compound 51], the Ki was 36.8 nM in experiment [1], 3.26 nM in experiment [2] and 32.9 nM on Adenosine A1 receptor.
Taken in the same sequence, the figures for `CCN(CC)Cc1cccc2c1C(=O)c1c(-c3ccccc3)nc(N)nc1-2` [Compound 52] were 94.4 nM, 18.3 nM and 107 nM.
Taken in the same sequence, the figures for `Nc1nc(-c2ccccc2)c2c(n1)-c1cccc(CN3CCCCC3)c1C2=O` [Compound 53] were 64.2 nM, 14.2 nM and 40.8 nM.
Taken in the same sequence, the figures for `COC(=O)C1CCCCN1Cc1cccc2c1C(=O)c1c(-c3ccccc3)nc(N)nc1-2` (stereo not drawn) [Compound 54] were 40.8 nM, 3.19 nM and 19.6 nM.
On to `CCOC(=O)C1CCCN(Cc2cccc3c2C(=O)c2c(-c4ccccc4)nc(N)nc2-3)C1` (stereo not drawn) [Compound 55], for which the Ki worked out at 32.8 nM in experiment [1], 5.84 nM in experiment [2] and 19.9 nM on Adenosine A1 receptor.
The matching figures for `COC(=O)CN(C)Cc1cccc2c1C(=O)c1c(-c3ccccc3)nc(N)nc1-2` [Compound 56]: 25.7 nM, 6.81 nM and 25.8 nM.
On to `Nc1nc(-c2ccccc2)c2c(n1)-c1cccc(CN3CCCC(CO)C3)c1C2=O` (stereo not drawn) [Compound 57], for which the results for the Ki (in experiment [1]; in experiment [2]; on Adenosine A1 receptor) were 34 nM, 15.9 nM and 39.3 nM, respectively.
Take `CC(=O)N1CCN(Cc2cccc3c2C(=O)c2c(-c4ccccc4)nc(N)nc2-3)CC1` [Compound 59]: the Ki worked out at 40.8 nM in experiment [1], 7.94 nM in experiment [2] and 34.1 nM on Adenosine A1 receptor.
Taken in the same sequence, the figures for `N#Cc1c(N)nc(-c2ccccc2)c2c1-c1ccccc1C2=O` [Compound 64] were 13.1 nM, 0.138 nM and 4.61 nM.
On to `Nc1nc(-c2ccccc2)c2c(c1C(=O)O)-c1ccccc1C2=O` [Compound 65], for which the Ki in experiment [1] was 575 nM; in experiment [2], 245 nM; on Adenosine A1 receptor it was 163 nM.
On to `N#Cc1c(N)nc(-c2ccoc2)c2c1-c1ccccc1C2=O` [Compound 66], for which the Ki in experiment [1] worked out at 4.21 nM; in experiment [2] it was 0.069 nM; on Adenosine A1 receptor it was 15.6 nM.
Take `N#Cc1c(N)nc(-c2cccc(F)c2)c2c1-c1ccccc1C2=O` [Compound 67]: the results for the Ki (in experiment [1]; in experiment [2]; on Adenosine A1 receptor) were 13.4 nM, 0.618 nM and 4.37 nM, respectively.
Take `N#Cc1c(N)nc(-c2cccnc2)c2c1-c1ccccc1C2=O` [Compound 68]: the Ki in experiment [1] stood at 7.59 nM; in experiment [2], 0.73 nM; on Adenosine A1 receptor, 34.8 nM.
The matching figures for `Nc1nc(-c2ccco2)c2c(c1C(=O)O)-c1ccccc1C2=O` [Compound 69]: 2260 nM, 90.2 nM and greater than 1000 nM.
Taken in the same sequence, the figures for `N#Cc1c(N)nc(-c2ccc(F)cc2)c2c1-c1ccccc1C2=O` [Compound 71] were 17.2 nM, 3.39 nM and 2.42 nM.
For `N#Cc1c(N)nc(-c2cccs2)c2c1-c1ccccc1C2=O` [Compound 72], the Ki was 12.6 nM in experiment [1], 2.54 nM in experiment [2] and 6.24 nM at Adenosine A1 receptor.
The matching figures for `N#Cc1c(N)nc(-c2ccsc2)c2c1-c1ccccc1C2=O` [Compound 73]: 4.92 nM, 0.06 nM and 9.7 nM.
Taken in the same sequence, the figures for `COc1cccc(-c2nc(N)c(C#N)c3c2C(=O)c2ccccc2-3)c1` [Compound 74] were 14.7 nM, 5.7 nM and 7.28 nM.
The matching figures for `N#Cc1c(N)nc(-c2ncc[nH]2)c2c1-c1ccccc1C2=O` [Compound 75]: 23.7 nM, 1.51 nM and 78.3 nM.
On to `CN(C)CCNC(=O)c1c(N)nc(-c2ccco2)c2c1-c1ccccc1C2=O` [Compound 76], for which the Ki in experiment [1] was 33 nM; in experiment [2] it was 22.1 nM; on Adenosine A1 receptor, greater than 500 nM.
As for `N#Cc1c(N)nc(-c2ccco2)c2c1-c1c(F)c(F)c(F)c(F)c1C2=O` [Compound 79], the results for the Ki (in experiment [1]; in experiment [2]; at Adenosine A1 receptor) were 8.03 nM, 12.5 nM and greater than 1000 nM, respectively.
The matching figures for `CN1CCN(C(=O)c2c(N)nc(-c3ccco3)c3c2-c2ccccc2C3=O)CC1` [Compound 80]: 69.1 nM, 15.9 nM and 56 nM.
For `CN(C)CCOC(=O)c1c(N)nc(-c2ccccc2)c2c1-c1ccccc1C2=O` [Compound 81, 9H-indeno[2,1-c]pyridine-4-carboxylic acid, 3-amino-1-phenyl-9-oxo-, 2-dimethylamino-ethyl ester], the Ki in experiment [1] was determined as 229 nM; in experiment [2] it was 29 nM; at Adenosine A1 receptor, 33.6 nM.
As for `CN1CCCC1COC(=O)c1c(N)nc(-c2ccco2)c2c1-c1ccccc1C2=O` (stereo not drawn) [Compound 82, 9H-indeno[2,1-c]pyridine-4-carboxylic acid, 3-amino-1-furan-2-yl-9-oxo-, 1-methyl-pyrrolidin-2-ylmethyl ester], the Ki in experiment [1] was 20.2 nM; in experiment [2] it was 1.36 nM; on Adenosine A1 receptor, 29.6 nM.
For the compound `CN1CCN(CCCOC(=O)c2c(N)nc(-c3ccccc3)c3c2-c2ccccc2C3=O)CC1` [Compound 83], the Ki in experiment [1] is 200 nM; in experiment [2], 74.9 nM; at Adenosine A1 receptor, 117 nM.

The term Ki denotes a dissociation constant, usually derived from enzyme kinetics or from competition with a known ligand.
